Literature values in PubChem BioAssay AID1259409 (Chemical Carcinogenesis Research Information System (CCRIS), 2018).

System: rodent chemically induced tumor inhibition, incidence and multiplicity
Assay: CCRIS tumor inhibitor studies
Conditions: Species: MOUSE

SMILES: Cc1cc(=O)cc(C)o1
- tumour outcome (control, treated, inhibition, significance) (Carcinogen: BENZO[A]PYRENE, 50-32-8, Dose [Inhibitor]: 0.034 MMOL/G IN DIET FOR 5 WK (STUDY DURATION: 21 WK), Route [Inhibitor]: ORAL, Strain/Sex: ICR/FEMALE, Target Tissue: Type of Lesion: FORESTOMACH: TUMOR, Dose [Carcinogen]: 1 MG IN 0.2 ML CORN OIL 2/WK FOR 4 WK STARTING ON D 8 OF EXPERIMENT, Promoter: NONE USED): 94%, 100%, -6%, not significant

SMILES: C=C1C[C@H]2[C@@H]3CC[C@H](OC(C)=O)[C@@]3(C)CC[C@@H]2[C@@]2(C)CCC(=O)C=C12
- tumour outcome (control, treated, inhibition, significance) (Carcinogen: NONE USED, Dose [Inhibitor]: 0, 1 SILASTIC CAPSULE (1.5, 2.0, AND 15 MM IN INNER AND OUTER DIAMETERS AND LENGTH, RESPECTIVELY) REPLACED AFTER 2 MO IN, Route [Inhibitor]: SUBCUTANEOUS IMPLANT, Strain/Sex: SHN/FEMALE, Target Tissue: Type of Lesion: MAMMARY GLAND: TUMOR, Promoter: NONE USED): 100%, 75%, 25%, p<0.01

SMILES: N[C@@H](Cc1ccc(O)cn1)C(=O)O
- tumour outcome (control, treated, inhibition, significance) (Carcinogen: 7,12-DIMETHYLBENZ[A]ANTHRACENE, 57-97-6, Dose [Inhibitor]: 0, 2 MG IN 50% ETHANOL 1/3 D BEGINNING 2 D POST CARCINOGEN TREATMENT (STUDY DURATION: 30 WK), Route [Inhibitor]: DERMAL, Strain/Sex: TRANSGENIC/MALE, FEMALE, Target Tissue: Type of Lesion: SKIN: PAPILLOMA, Dose [Carcinogen]: 5 MG/KG/BW ONCE, Promoter: NONE USED): 100%, 45%, 55%, not calculated
- tumour outcome (control, treated, inhibition, significance) (Carcinogen: METHYLNITROSOUREA, 684-93-5, Dose [Inhibitor]: 0, 2 MG/MOUSE 1/2 D FOR 12 WK BEGINNING 1 D POST CARCINOGEN TREATMENT (STUDY DURATION: 12 WK), Route [Inhibitor]: INTRAPERITONEAL, Strain/Sex: TRANSGENIC/MALE, FEMALE, Target Tissue: Type of Lesion: FORESTOMACH: PAPILLOMA, Dose [Carcinogen]: 50 MG/KG IN 10 MILLIMOLAR CITRATE BUFFER, Promoter: NONE USED): 100%, 0%, 100%, not calculated

SMILES: O=c1cc(-c2ccc(O)cc2)oc2cc(O)cc(O)c12
- tumour outcome (control, treated, inhibition, significance) (Carcinogen: 7,12-DIMETHYLBENZ[A]ANTHRACENE, 57-97-6, Dose [Inhibitor]: 0, 5 UMOL IN 0.2 ML ACETONE/DMSO (9:1) 2/WK FOR 20 WK APPLIED 30 MIN PRIOR TO EACH PROMOTER DOSE (STUDY DURATION: 30 WK), Route [Inhibitor]: DERMAL, Strain/Sex: SENCAR/FEMALE, Target Tissue: Type of Lesion: SKIN: PAPILLOMA, Dose [Carcinogen]: 10 NMOL IN 0.2 ML ACETONE ONCE, Promoter: 12-O-TETRADECANOYLPHORBOL-13-ACETATE, 16561-29-8): 92%, 87%, 5%, not significant
- tumour outcome (control, treated, inhibition, significance) (Carcinogen: UV-B IRRADIATION, Dose [Inhibitor]: 0, 5 UMOL IN 0.2 ML DMSO:ACETONE (1:9) 2.5-3 HR PRIOR TO EACH UV-B EXPOSURE (STUDY DURATION: 55 WK), Route [Inhibitor]: DERMAL, Strain/Sex: SKH-1/FEMALE, Target Tissue: Type of Lesion: SKIN: SQUAMOUS CELL CARCINOMA, Dose [Carcinogen]: 745 MJ/CM2 5 D/WK FOR 11 WK, Promoter: NONE USED): 81%, 67%, 17%, not significant
- tumour outcome (control, treated, inhibition, significance) (Carcinogen: UV-B IRRADIATION, Dose [Inhibitor]: 0, 10 UMOL IN 0.2 ML DMSO:ACETONE (1:9) 2.5-3 HR PRIOR TO EACH UV-B EXPOSURE (STUDY DURATION: 55 WK), Route [Inhibitor]: DERMAL, Strain/Sex: SKH-1/FEMALE, Target Tissue: Type of Lesion: SKIN: SQUAMOUS CELL CARCINOMA, Dose [Carcinogen]: 745 MJ/CM2 5 D/WK FOR 11 WK, Promoter: NONE USED): 81%, 39%, 52%, not calculated
